Here are results for 13 molecules from ChEMBL document CHEMBL1201862, “PubChem BioAssay data set” (2004).

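Dose response: 5 concentrations. Exposure: 48 h. Format: 96-well plates. Endpoint: linear interpolation; highest concentration if not reached. GI50: concentration for 50% inhibition of growth.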 Active and inactive are the calls of the source. No stated cut-off is given here; in the data, active = GI50 up to about 1.1 µM and inactive = higher.

Holding throughout (test): NCI tumour cell line growth inhibition, 48 h
The test system of assay [1] is OVCAR-5.
Assay [2] has as its system DLD-1.
Assay [3] deals with SF-539.
Assay [4] deals with IGROV-1.
Assay [5] concerns M19-MEL.
In assay [6] the test system is SW-620.
The test system of assay [7] is CCRF-CEM.
Assay [8] concerns 786-0.
In assay [9] the test system is OVCAR-4.
Assay [10] relates to A549.
Assay [11] deals with ACHN.
Assay [12] deals with UO-31.
Assay [13] deals with TK-10.
Assay [14] deals with Hs-578T.
The test system of assay [15] is SK-OV-3.
For assay [16], the system named is MCF7.
The subject of assay [17] is MDA-MB-435.
Assay [18] deals with LOX IMVI.
Assay [19] relates to T47D.
Assay [20] has as its system PC-3.

With `Nc1nc(CCl)nc(Nc2ccccc2)n1`, the GI50 in assay [1] was 19.9 µM (inactive); in [2], 36.9 µM (inactive); in assay [3], 25 µM (inactive); in assay [4], 16.6 µM (inactive); in [5] it was 29.4 µM (inactive); in assay [6], 21.3 µM (inactive). The GI50 in assay [7] is 2.14 µM (inactive); in assay [8] it was 2 µM (inactive); in [9], 17.4 µM (inactive); in assay [10] it was 26.2 µM (inactive); in [11] it was 27 µM (inactive); in assay [12] it was 28.5 µM (inactive). Moreover, the GI50 in assay [13] is 24 µM (inactive).
With `NC1=C(NC(=O)Cc2ccccc2F)C(=O)c2ccccc2C1=O`, the GI50 in assay [2] is 16.6 µM (inactive); in [3], 26.9 µM (inactive); in assay [4], 38.8 µM (inactive); in [5], 4.5 µM (inactive); in assay [6], 97.3 µM (inactive); in assay [7] it was > 100 µM (inactive). The GI50 in [8] is 27.1 µM (inactive); in assay [9] it was 42 µM (inactive); in [10], 59.3 µM (inactive); in assay [11], 76.9 µM (inactive); in assay [12] it was 92.7 µM (inactive); in assay [13], 41.2 µM (inactive).
Regarding `OC1c2ccccc2[C@@H]2[C@H]1[C@@H](c1ccccc1)C1(Cc3ccccc3C1O)[C@H]2c1ccccc1` (stereo not given in full), the GI50 was 6.93 µM (inactive) in [14]; 11.1 µM (inactive) in [1]; 13.4 µM (inactive) in assay [3]; 4.37 µM (inactive) in [4]; 10.9 µM (inactive) in assay [15]; 1.99 µM (inactive) in assay [16]. Besides, the GI50 is 5.01 µM (inactive) in [6]; 2.82 µM (inactive) in assay [17]; 3.13 µM (inactive) in assay [7]; 2.96 µM (inactive) in assay [8]; 4.04 µM (inactive) in assay [9]; 2.49 µM (inactive) in assay [18]. Also, the GI50 was 3.86 µM (inactive) in assay [10]; 6.71 µM (inactive) in [19]; 6.37 µM (inactive) in [11]; 7.52 µM (inactive) in assay [12]; 16.1 µM (inactive) in assay [13]; 3 µM (inactive) in assay [20].
As to `c1ccc2c3nnc(c2c1)SCCSCCCSCCS3`, the GI50 is 32.4 µM (inactive) in assay [14]; > 100 µM (inactive) in [1]; 12.6 µM (inactive) in assay [3]; 34.4 µM (inactive) in assay [4]; 27.8 µM (inactive) in assay [15]; > 100 µM (inactive) in [16]. For the same molecule, the GI50 in assay [6] was > 100 µM (inactive); in assay [17] it was > 100 µM (inactive); in [7], > 100 µM (inactive); in [8], 29.1 µM (inactive); in assay [9], 2.9 µM (inactive); in [18] it was > 100 µM (inactive). Also, the GI50 was 91 µM (inactive) in [10]; > 100 µM (inactive) in [19]; 61.1 µM (inactive) in [11]; 44.3 µM (inactive) in assay [12]; 48 µM (inactive) in assay [13]; 43.1 µM (inactive) in [20].
On to `O=C(c1ccccc1)C(C(=O)c1ccccc1)C1(O)C(=O)c2ccccc2C1=O`, for which the GI50 is 60.3 µM (inactive) in assay [1]; 32.1 µM (inactive) in assay [3]; 53.3 µM (inactive) in assay [4]; 48.8 µM (inactive) in [15]; 16.6 µM (inactive) in assay [5]; 38.7 µM (inactive) in assay [6]. For the same molecule, the GI50 in [7] was 20.4 µM (inactive); in [8], 26.9 µM (inactive); in assay [18], 32.4 µM (inactive); in [10] it was 29.3 µM (inactive); in assay [11] it was 31.9 µM (inactive); in assay [12] it was 36.1 µM (inactive). Moreover, in assay [13], the GI50 is 3.01 µM (inactive).
For the molecule `CCCCn1c2c(n(CCCC)c1=S)-c1c(n(CCCC)c(=S)n1CCCC)S[Se][Se]S2`, the GI50 in [14] was 5.25 µM (inactive); in assay [1], 2.17 µM (inactive); in assay [3], 3.81 µM (inactive); in assay [4], 2.42 µM (inactive); in [15] it was 22 µM (inactive); in assay [16] it was 6.64 µM (inactive). In addition, the GI50 in [6] was 0.778 µM (active); in assay [17], 4.95 µM (inactive); in assay [7], 0.26 µM (active); in assay [8], 4.62 µM (inactive); in assay [9], 0.815 µM (active); in assay [18], 6.05 µM (inactive). The GI50 in assay [10] was 19.7 µM (inactive); in assay [19] it was 0.294 µM (active); in assay [11], 2.67 µM (inactive); in assay [12], 2.5 µM (inactive); in assay [13], 4.42 µM (inactive); in [20], 2.26 µM (inactive).
Take `OCc1ccc2c(c1)CC1(C2)Cc2cc3c(cc2C1)CCC3`: the GI50 is 4.02 µM (inactive) in assay [14]; > 100 µM (inactive) in [1]; 3.57 µM (inactive) in [3]; 7.87 µM (inactive) in [4]; 11.4 µM (inactive) in assay [15]; 2.5 µM (inactive) in assay [16]. The GI50 in assay [6] is 1.77 µM (inactive); in assay [17] it was 0.204 µM (active); in assay [7], 2.74 µM (inactive); in [8], 5.51 µM (inactive); in assay [9], 17.4 µM (inactive); in assay [18], 3.66 µM (inactive). The GI50 in assay [10] was 8.47 µM (inactive); in [19], 4.82 µM (inactive); in [11], 5.31 µM (inactive); in [12], 4.97 µM (inactive); in assay [13] it was 13 µM (inactive); in assay [20], 1.19 µM (inactive).
In the case of `COc1cccc(/C=C2\N=C(Cl)OC2=O)c1O`, the GI50 in assay [1] is > 100 µM (inactive); in assay [2] it was > 76.7 µM (inactive); in [3], > 100 µM (inactive); in assay [4], > 100 µM (inactive); in assay [15], > 38.7 µM (inactive); in [6], > 66.4 µM (inactive). Further, the GI50 in assay [7] is > 55.3 µM (inactive); in [8], > 94.6 µM (inactive); in [9] it was > 100 µM (inactive); in assay [18], > 100 µM (inactive); in [10] it was > 100 µM (inactive); in assay [11], > 100 µM (inactive). The GI50 in assay [12] and in [13] was > 100 µM (inactive) in each case.
Consider `COC1OC(C)/C(=N/O)C2OC(C)(C)OC12` (stereo not given), for which the GI50 in [14] is > 100 µM (inactive); in assay [1], > 100 µM (inactive); in assay [3], > 100 µM (inactive); in assay [4], > 100 µM (inactive); in assay [15], > 100 µM (inactive); in assay [16], 78.7 µM (inactive). Besides, the GI50 in assay [6], in assay [17], in assay [7], in [8], in assay [9] and in assay [18] was > 100 µM (inactive) throughout. Also, the GI50 in [10], in assay [19], in assay [11], in [12], in assay [13] and in assay [20] was > 100 µM (inactive) throughout.
Consider `O=[N+]([O-])c1ccc(C2=NN(c3ccccc3)C[N+](c3ccc(Br)cc3)=N2)cc1`, for which the GI50 in assay [1] is > 100 µM (inactive); in [2] it was > 100 µM (inactive); in [3], 46 µM (inactive); in [4] it was > 100 µM (inactive); in assay [15], > 100 µM (inactive); in assay [5] it was > 100 µM (inactive). The GI50 was > 100 µM (inactive) in assay [6]; > 100 µM (inactive) in [8]; > 100 µM (inactive) in assay [9]; 82 µM (inactive) in [10]; > 100 µM (inactive) in assay [11]; > 100 µM (inactive) in assay [12]. Further, in [13], the GI50 was > 100 µM (inactive).
With `N#CC(C#N)/N=N/c1ccc(-c2nc3ccccc3[nH]2)cc1`, the GI50 is 52 µM (inactive) in [14]; > 100 µM (inactive) in assay [1]; 15.9 µM (inactive) in assay [3]; 16.8 µM (inactive) in [4]; > 100 µM (inactive) in assay [15]; 11.1 µM (inactive) in assay [16]. The GI50 in [6] is 11.5 µM (inactive); in [17], 18 µM (inactive); in [7] it was 9.84 µM (inactive); in [8], 21.2 µM (inactive); in [9], 22 µM (inactive); in [18], 14.7 µM (inactive). Further, the GI50 in assay [10] was > 100 µM (inactive); in assay [19] it was 16.6 µM (inactive); in [11], 13.7 µM (inactive); in assay [12], 14 µM (inactive); in assay [13], 30.8 µM (inactive); in assay [20], 15.8 µM (inactive).
On to `CCc1nc(N)nc(N)c1-c1ccc([N+](=O)[O-])c(NCc2ccccc2)c1`, for which the GI50 is 13.8 µM (inactive) in assay [14]; 22.4 µM (inactive) in assay [1]; 16.3 µM (inactive) in assay [3]; 10.9 µM (inactive) in assay [4]; 20.4 µM (inactive) in assay [15]; 13.6 µM (inactive) in [16]. For the same molecule, the GI50 in assay [6] was 12.6 µM (inactive); in assay [17] it was 14.6 µM (inactive); in assay [7] it was 8.85 µM (inactive); in [8] it was 13.9 µM (inactive); in assay [9], 15.2 µM (inactive); in [18], 14.5 µM (inactive). Further, the GI50 in assay [10] is 6.17 µM (inactive); in assay [19] it was 6.47 µM (inactive); in [11] it was 15.3 µM (inactive); in assay [12], 6.18 µM (inactive); in assay [13], 20.2 µM (inactive); in [20] it was 12.8 µM (inactive).
As for `COc1ccc(NCc2cc(OC)c(OC)c(OC)c2)cc1`, the GI50 in [2] was 0.345 µM (active); in assay [3], 0.34 µM (active); in [4] it was 0.631 µM (active); in [15], 0.504 µM (active); in assay [6], 0.234 µM (active); in assay [8], 0.647 µM (active). The GI50 in assay [9] was 21.4 µM (inactive); in assay [18] it was 0.519 µM (active); in [10], 0.578 µM (active).
